Laboratory results: patent EP1243271A1, “NASAL DROPS CONTAINING FUSED PYRIDAZINE DERIVATIVES” (Takeda Chemical Industries, Ltd., priority 1999, dated 2001)
Counter-ions that a name gives are not always drawn.

These compounds were tested on Male Hartley guinea pigs (assay: Effect on histamine-induced increases in microvascular permeability in skin in guinea pigs). Details: Cavia porcellus; 3 mg/kg oral administration 1 hour before histamine; guinea pig skin.
Format: in vivo
Procedure: Male Hartley guinea pigs weighing about 500 g were used. After the dorsal hair was shaved under ether anesthesia, 1 ml of a 2.5% pontamine sky blue solution was injected intravenously, and then 0.1 ml of histamine at 3 µg/ml was injected intradermally into 2 sites (left and right) in the back. Thirty minutes after the injection of histamine, animals were fainted by knocking in the head, decapitated and killed by bleeding, after which the skin of the back was removed. The long and short diameters (mm) of each blue spot were measured and multiplied; the mean product was taken as the vascular permeability index. Test compounds were suspended in a 5% gum arabic solution and orally administered in a volume of 0.2 ml/100 g body weight at 1 hour before histamine administration. Animals in the control group received the same volume of a 5% gum arabic solution. Equation 1 Inhibition (%) of histamine-induced increases in microvascular permeability in skin = 100 × (1-vascular permeability index in the presence of drug/vascular permeability index in control group) [formula]

| SMILES | inhibition in vivo at 3 mg/kg [%] |
| --- | --- |
| CC(C)(C(=O)O)c1cn2nc(OCCCN3CCC(OC(c4ccccc4)c4ccccc4)CC3)ccc2n1 [Reference Example B45, 2-[6-[3-[4-(diphenylmethoxy)piperidino]-propoxy]imidazo[1,2-b]pyridazin-2-yl]-2-methylpropionic acid] | 91 |
| O=C(CCN1CCC(OC(c2ccccc2)c2ccccc2)CC1)Nc1ccc2ncnn2n1 [Reference Example B18, 3-[4-(diphenylmethoxy)piperidino]-N-([1,2,4]triazolo[1,5-b]pyridazin-6-yl)propionamide] | 91 |
| c1ccc(C(OC2CCN(CCCCNc3ccc4ncnn4n3)CC2)c2ccccc2)cc1 [Reference Example B12, 6-[4-[4-(diphenylmethoxy)piperidino]-butylamino][1,2,4]triazolo[1,5-b]pyridazine] | 91 |
| Cc1nc2ccc(NCCCN3CCC(OC(c4ccccc4)c4ccccc4)CC3)nn2n1 [Reference Example B20, 6-[3-[4-(diphenylmethoxy)piperidino]-propylamino]-2-methyl[1,2,4]triazolo[1,5-b]pyridazine] | 92 |
| c1ccc(C(c2ccccc2)N2CCN(CCCCCCNc3ccc4ncnn4n3)CC2)cc1 [Reference Example B37, 6-[6-[4-(diphenylmethyl)-1-piperazinyl]-hexylamino][1,2,4]triazolo[1,5-b]pyridazine] | 92 |
| COc1cn2nc(OCCCN3CCC(OC(c4ccccc4)c4ccccc4)CC3)ccc2n1 [Reference Example B41, 6-[3-[4-(diphenylmethoxy)piperidino]propoxy]-2-methoxyimidazo[1,2-b]pyridazine] | 92 |
| c1ccc(C(OC2CCN(CCCNc3ccc4ncnn4n3)CC2)c2ccccc2)cc1 [Reference Example B6, 6-[3-[4-(diphenylmethoxy)piperidino]-propylamino][1,2,4]triazolo[1,5-b]pyridazine] | 91 |
| Cc1nc2ccc(OCCCN3CCC(OC(c4ccccc4)c4ccccc4)CC3)nn2n1 [Reference Example B21, 6-[3-[4-(diphenylmethoxy)piperidino]propoxy]-2-methyl[1,2,4]triazolo[1,5-b]pyridazine] | 91 |

What follows are compounds tested on Guinea Pig Eosinophils (assay: Suppression of LTB4-induced chemotactic reaction of guinea pig eosinophils). Details: Cavia porcellus, Eosinophil, test drug 1 × 10^-5 M, LTB4 10^-8 M, read-out: Suppression Rate (%).
Format: cell-based, guinea pigs
Procedure: To male Hartley guinea pigs, 2 ml of equine serum (Bio-Whittaker, Inc.) was intraperitoneally administered once weekly for 8 consecutive weeks. At 48 hours after final administration, 75 ml of physiological saline was intraperitoneally injected, after which the recovered solution was centrifuged at 400 × g for 5 minutes. The resulting sediment was suspended in 5 ml of Percoll solution (density d=1.07) and layered on top of the discontinuous density layer of Percoll solution (density d=1.112, 5 ml; d=1.095, 10 ml; d=1.090, 10 ml; d=1.085, 5 ml), followed by centrifugation at 1,000 × g for 25 minutes (20°C). The cell layer formed at the interface between density d= 1.112 and density d=1.095 was collected. Erythrocytes present in the collected cell sediment were removed by hypotonic treatment (suspended in water for […]).
The cell sediment was washed 3 times with Hanks' solution containing 10 mM Hepes (Dojin Kagaku) (Hanks-Hepes) and suspended in a Hanks-Hepes solution containing 2% human serum albumin (Wako Pure Chemical Industry or Sigma) (Hanks-Hepes-HSA) to a concentration of 5.56×10^6 cells/ml. Eosinophil purity was 90%, viability was over 98%.
To a 24-well culture dish, which serves as a lower chamber, 600 µl of Hanks-Hepes-HSA solution containing LTB4 (final concentration 10^-8 M, Cascade Biochemical Ltd.), was transferred, followed by incubation at 37°C for 30 minutes in a carbon dioxide incubator. Separately, 200 µl of eosinophil suspension (5×10^6 cells/ml), previously incubated at 37°C for 15 minutes, was added to Chemotaxicell (polycarbonate membrane, pore size 3 µm, thickness 10 µm), which serves as an upper chamber, after the upper chamber was attached to the 24-well culture dish. After 2 hours of reaction in the carbon dioxide incubator, the Chemotaxicell was removed; 60 µl of 2% (w/v) EDTA solution in physiological saline was added to the liquid in the lower chamber. After ice-cooling, the cells migrating into the inner solution of the lower chamber were counted using a blood cell counter [Coulter Counter (trade name)]. The test drug, dissolved in N,N-dimethylformamide (DMF), was added to both the upper and lower chambers to a final concentration of 10^-5 M. Equation 2 Chemotactic reaction suppression rate = [1-(number of migrating cells in the presence of drug/number of migrating cells in the absence of drug)] × 100 [formula] suppression rates of LTB4 -induced chemotactic reaction by test drug (1 × 10^-5 M concentration) were calculated.

| SMILES | inhibition at 10 µM [%] |
| --- | --- |
| c1ccc(C(OC2CCN(CCCCCCNc3ccc4ncnn4n3)CC2)c2ccccc2)cc1 [Reference Example B35, 6-[6-[4-(diphenylmethoxy)piperidino]-hexylamino][1,2,4]triazolo[1,5-b]pyridazine] | 52 |
| Cc1cc2ncnn2nc1OCCCCCCN1CCN(C(c2ccccc2)c2ccccc2)CC1 [Reference Example B51, 6-[6-[4-(diphenylmethyl)-1-piperazinyl]hexyloxy]-7-methyl[1,2,4]triazolo[1,5-b]pyridazine dihydrochloride] | 80 |
| COC(=O)c1nc2ccc(NCCCN3CCC(OC(c4ccccc4)c4ccccc4)CC3)nn2n1 [Reference Example B36, methyl 6-[3-[4-(diphenylmethoxy)piperidino]-propylamino][1,2,4]triazolo[1,5-b]pyridazine-2-carboxylate] | 64 |
| CC(C)(C)c1nc2ccc(NCCCN3CCC(OC(c4ccccc4)c4ccccc4)CC3)nn2n1 [Reference Example B34, 2-tert-butyl-6-[3-[4-(diphenylmethoxy)-piperidino]propylamino][1,2,4]triazolo[1,5-b]pyridazine fumarate] | 50 |
| CC(C)c1cc2ncnn2nc1OCCOCCN1CCN(C(c2ccccc2)c2ccccc2)CC1 [Reference Example B61, 6-[2-[2-[4-(diphenylmethyl)-1-piperazinyl]-ethoxy]ethoxy]-7-isopropyl[1,2,4]triazolo[1,5-b]pyridazine] | 50 |
| Cc1nc2ccc(NCCCN3CCC(OC(c4ccccc4)c4ccccc4)CC3)nn2n1 [Reference Example B20, 6-[3-[4-(diphenylmethoxy)piperidino]-propylamino]-2-methyl[1,2,4]triazolo[1,5-b]pyridazine] | 61 |
| CC(C)(C)c1cc2ncnn2nc1OCCOCCN1CCN(C(c2ccccc2)c2ccccc2)CC1 [Reference Example B62, 7-tert-butyl-6-[2-[2-[4-(diphenylmethyl)-1-piperazinyl]ethoxy]ethoxy][1,2,4]triazolo[1,5-b]pyridazine dihydrochloride] | 52 |
| CC(C)c1cc2ncnn2nc1SCCOCCN1CCN(C(c2ccccc2)c2ccccc2)CC1 [Reference Example B59, 6-[2-[2-[4-(diphenylmethyl)-1-piperazinyl]-ethoxy]ethylthio]-7-isopropyl[1,2,4]triazolo[1,5-b]pyridazine dihydrochloride] | 54 |
| c1ccc(C(OC2CCN(CCCOc3ccc4ncnn4n3)CC2)c2ccccc2)cc1 [Reference Example B2, 6-[3-[4-(diphenylmethoxy)piperidino]propoxy]-[1,2,4]triazolo[1,5-b]pyridazine fumarate] | 54 |
| c1ccc(C(OC2CCN(CCCNc3ccc4ncnn4n3)CC2)c2ccccc2)cc1 [Reference Example B6, 6-[3-[4-(diphenylmethoxy)piperidino]-propylamino][1,2,4]triazolo[1,5-b]pyridazine] | 64 |
| Cc1cc2ncnn2nc1OCCOCCN1CCN(C(c2ccccc2)c2ccccc2)CC1 [Reference Example B47, 6-[2-[2-[4-(diphenylmethyl)-1-piperazinyl]-ethoxy]ethoxy]-7-methyl[1,2,4]triazolo[1,5-b]pyridazine] | 54 |
